Data from ChEMBL document CHEMBL5442219.

Key:
Settings in all cases: Compound concentration 10 µM
[1] = target: T1, Alpha-2A adrenergic receptor (Homo sapiens) (UniProt P08913)
T1 sequence (whole entry): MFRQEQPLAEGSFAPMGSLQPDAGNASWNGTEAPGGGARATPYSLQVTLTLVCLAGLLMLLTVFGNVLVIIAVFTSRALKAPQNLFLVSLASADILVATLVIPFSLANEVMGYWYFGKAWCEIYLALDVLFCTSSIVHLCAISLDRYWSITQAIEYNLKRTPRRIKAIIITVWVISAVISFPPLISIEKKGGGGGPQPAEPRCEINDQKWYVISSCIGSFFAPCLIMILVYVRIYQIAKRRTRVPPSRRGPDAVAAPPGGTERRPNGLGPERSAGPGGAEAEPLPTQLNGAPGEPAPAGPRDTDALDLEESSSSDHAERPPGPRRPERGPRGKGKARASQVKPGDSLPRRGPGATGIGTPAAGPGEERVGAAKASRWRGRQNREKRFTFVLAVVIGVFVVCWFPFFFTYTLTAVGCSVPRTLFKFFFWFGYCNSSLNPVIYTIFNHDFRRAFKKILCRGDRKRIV

[2] = target: T2, Alpha-2C adrenergic receptor (Homo sapiens) (UniProt P18825)
T2 sequence (whole entry): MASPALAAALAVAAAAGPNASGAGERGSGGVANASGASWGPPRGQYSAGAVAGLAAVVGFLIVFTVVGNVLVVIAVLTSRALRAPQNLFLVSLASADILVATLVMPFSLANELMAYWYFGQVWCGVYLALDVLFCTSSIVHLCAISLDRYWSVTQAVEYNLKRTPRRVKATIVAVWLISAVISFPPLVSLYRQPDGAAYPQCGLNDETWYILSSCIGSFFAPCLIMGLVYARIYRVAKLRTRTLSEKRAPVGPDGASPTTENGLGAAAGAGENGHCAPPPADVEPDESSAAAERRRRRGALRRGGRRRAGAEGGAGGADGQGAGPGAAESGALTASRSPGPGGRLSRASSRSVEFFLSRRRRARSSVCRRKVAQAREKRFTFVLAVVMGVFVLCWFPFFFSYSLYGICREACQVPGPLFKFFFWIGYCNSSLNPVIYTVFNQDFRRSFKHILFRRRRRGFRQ

[3] = target: T3, Muscarinic acetylcholine receptor M4 (Homo sapiens) (UniProt P08173)
T3 sequence (whole entry): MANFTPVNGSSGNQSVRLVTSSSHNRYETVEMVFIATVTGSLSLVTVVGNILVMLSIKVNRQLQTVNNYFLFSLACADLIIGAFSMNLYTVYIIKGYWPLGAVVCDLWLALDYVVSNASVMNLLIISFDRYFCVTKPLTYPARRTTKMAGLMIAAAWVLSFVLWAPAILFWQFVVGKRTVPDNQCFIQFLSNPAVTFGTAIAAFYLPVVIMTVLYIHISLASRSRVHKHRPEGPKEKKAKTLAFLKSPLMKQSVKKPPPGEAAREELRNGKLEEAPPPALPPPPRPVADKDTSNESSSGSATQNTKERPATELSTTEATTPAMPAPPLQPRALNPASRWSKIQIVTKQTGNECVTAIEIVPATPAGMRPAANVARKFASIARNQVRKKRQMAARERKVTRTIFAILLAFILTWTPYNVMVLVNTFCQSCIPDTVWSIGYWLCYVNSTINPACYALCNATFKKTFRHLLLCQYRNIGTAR

[4] = target: Histamine H1 receptor (Homo sapiens) (UniProt P35367)
[5] = target: Histamine H4 receptor (Homo sapiens) (UniProt Q9H3N8)
[6] = target: T4, 5-hydroxytryptamine receptor 1A (Homo sapiens) (UniProt P08908)
T4 sequence (whole entry): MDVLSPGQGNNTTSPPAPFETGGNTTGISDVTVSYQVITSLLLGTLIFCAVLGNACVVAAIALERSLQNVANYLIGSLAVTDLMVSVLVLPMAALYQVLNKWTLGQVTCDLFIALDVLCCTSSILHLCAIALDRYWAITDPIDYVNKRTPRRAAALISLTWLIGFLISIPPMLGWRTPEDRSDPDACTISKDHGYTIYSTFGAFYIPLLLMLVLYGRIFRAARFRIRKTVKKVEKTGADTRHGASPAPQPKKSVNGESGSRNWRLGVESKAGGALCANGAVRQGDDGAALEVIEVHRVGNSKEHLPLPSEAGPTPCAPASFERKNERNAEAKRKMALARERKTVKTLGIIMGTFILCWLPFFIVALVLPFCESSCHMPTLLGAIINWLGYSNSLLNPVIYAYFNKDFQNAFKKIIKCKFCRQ

[7] = target: 5-hydroxytryptamine receptor 1B (Homo sapiens) (UniProt P28222)
[8] = target: 5-hydroxytryptamine receptor 1D (Homo sapiens) (UniProt P28221)
[9] = target: 5-hydroxytryptamine receptor 2B (Homo sapiens) (UniProt P41595)
[10] = target: 5-hydroxytryptamine receptor 5A (Homo sapiens) (UniProt P47898)
[11] = target: 5-hydroxytryptamine receptor 7 (Homo sapiens) (UniProt P34969)
[12] = target: Sodium-dependent serotonin transporter (Homo sapiens) (UniProt P31645)
[13] = target: Beta-1 adrenergic receptor (Homo sapiens) (UniProt P08588)
[14] = target: T5, D(4) dopamine receptor (Homo sapiens) (UniProt P21917)
T5 sequence (whole entry): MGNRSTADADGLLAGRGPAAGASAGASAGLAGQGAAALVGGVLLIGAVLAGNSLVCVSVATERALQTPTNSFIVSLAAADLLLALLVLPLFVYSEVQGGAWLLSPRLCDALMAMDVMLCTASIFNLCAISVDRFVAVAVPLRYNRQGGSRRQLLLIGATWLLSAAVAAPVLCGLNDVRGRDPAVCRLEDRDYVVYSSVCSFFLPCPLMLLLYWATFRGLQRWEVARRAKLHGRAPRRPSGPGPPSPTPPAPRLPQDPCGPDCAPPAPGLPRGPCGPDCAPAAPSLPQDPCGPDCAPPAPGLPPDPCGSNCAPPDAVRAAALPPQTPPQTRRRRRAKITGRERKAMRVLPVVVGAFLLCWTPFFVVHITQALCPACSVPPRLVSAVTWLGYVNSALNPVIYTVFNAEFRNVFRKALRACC

[15] = target: D(1B) dopamine receptor (Homo sapiens) (UniProt P21918)
D(1B) dopamine receptor (Homo sapiens), sequence (P21918 whole entry): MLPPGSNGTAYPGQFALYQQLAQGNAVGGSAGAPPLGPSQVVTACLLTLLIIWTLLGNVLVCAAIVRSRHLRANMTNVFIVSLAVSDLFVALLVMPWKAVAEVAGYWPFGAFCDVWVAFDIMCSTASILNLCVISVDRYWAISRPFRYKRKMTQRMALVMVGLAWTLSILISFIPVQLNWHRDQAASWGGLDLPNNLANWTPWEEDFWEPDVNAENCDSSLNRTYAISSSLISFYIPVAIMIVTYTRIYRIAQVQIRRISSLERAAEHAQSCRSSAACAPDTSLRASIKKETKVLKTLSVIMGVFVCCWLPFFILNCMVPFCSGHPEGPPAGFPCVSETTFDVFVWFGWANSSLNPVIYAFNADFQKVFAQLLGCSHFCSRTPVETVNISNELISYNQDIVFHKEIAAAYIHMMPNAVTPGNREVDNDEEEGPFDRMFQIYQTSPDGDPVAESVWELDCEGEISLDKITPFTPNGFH

Beta-1 adrenergic receptor (Homo sapiens), sequence (P08588 whole entry, looked up): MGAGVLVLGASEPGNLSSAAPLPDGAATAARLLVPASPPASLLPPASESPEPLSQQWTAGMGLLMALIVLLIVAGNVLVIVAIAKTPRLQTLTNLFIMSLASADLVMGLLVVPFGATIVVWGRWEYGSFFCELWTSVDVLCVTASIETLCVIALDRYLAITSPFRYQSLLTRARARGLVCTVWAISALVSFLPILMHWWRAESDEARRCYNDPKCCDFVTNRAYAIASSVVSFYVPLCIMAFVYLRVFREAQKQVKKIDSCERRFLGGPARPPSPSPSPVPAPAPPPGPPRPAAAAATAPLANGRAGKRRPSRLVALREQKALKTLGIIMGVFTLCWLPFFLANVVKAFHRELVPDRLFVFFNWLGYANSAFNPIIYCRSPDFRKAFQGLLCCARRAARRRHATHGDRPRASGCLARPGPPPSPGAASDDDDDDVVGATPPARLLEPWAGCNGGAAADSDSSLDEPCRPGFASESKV
5-hydroxytryptamine receptor 2B (Homo sapiens), sequence (P41595 whole entry): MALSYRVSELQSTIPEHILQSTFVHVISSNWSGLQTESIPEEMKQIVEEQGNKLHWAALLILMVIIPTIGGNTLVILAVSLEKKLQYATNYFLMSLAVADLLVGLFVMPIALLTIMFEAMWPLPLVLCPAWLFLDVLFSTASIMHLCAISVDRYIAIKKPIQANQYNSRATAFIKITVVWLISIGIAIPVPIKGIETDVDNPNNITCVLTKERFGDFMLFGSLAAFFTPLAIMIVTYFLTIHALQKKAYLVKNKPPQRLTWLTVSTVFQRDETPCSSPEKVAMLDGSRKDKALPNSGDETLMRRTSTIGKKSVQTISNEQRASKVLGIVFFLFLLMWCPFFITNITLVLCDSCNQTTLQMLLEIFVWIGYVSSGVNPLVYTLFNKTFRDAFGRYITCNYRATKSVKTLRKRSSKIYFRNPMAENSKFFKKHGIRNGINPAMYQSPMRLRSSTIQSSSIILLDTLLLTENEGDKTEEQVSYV
5-hydroxytryptamine receptor 1D (Homo sapiens), sequence (P28221 whole entry): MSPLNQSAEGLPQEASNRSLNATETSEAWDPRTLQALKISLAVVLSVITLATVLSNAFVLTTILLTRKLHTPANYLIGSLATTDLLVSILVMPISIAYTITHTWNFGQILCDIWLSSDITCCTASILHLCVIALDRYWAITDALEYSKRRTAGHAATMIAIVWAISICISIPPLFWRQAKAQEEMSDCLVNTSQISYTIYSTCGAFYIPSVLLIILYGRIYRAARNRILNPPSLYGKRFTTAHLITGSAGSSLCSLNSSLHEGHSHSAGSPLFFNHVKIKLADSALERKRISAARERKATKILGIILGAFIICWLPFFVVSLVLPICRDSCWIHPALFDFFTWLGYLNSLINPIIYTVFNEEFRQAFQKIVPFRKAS
5-hydroxytryptamine receptor 1B (Homo sapiens), sequence (P28222 whole entry): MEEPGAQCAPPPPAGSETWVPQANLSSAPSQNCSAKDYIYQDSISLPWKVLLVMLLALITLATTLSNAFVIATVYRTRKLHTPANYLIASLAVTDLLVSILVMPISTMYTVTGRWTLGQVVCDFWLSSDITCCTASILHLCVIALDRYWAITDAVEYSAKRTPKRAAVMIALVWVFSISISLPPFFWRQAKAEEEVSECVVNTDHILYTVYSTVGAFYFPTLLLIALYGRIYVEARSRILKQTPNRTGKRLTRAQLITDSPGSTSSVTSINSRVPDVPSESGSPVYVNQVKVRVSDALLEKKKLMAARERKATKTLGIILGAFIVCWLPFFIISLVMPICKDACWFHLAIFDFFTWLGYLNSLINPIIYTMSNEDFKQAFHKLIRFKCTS
5-hydroxytryptamine receptor 5A (Homo sapiens), sequence (P47898 whole entry): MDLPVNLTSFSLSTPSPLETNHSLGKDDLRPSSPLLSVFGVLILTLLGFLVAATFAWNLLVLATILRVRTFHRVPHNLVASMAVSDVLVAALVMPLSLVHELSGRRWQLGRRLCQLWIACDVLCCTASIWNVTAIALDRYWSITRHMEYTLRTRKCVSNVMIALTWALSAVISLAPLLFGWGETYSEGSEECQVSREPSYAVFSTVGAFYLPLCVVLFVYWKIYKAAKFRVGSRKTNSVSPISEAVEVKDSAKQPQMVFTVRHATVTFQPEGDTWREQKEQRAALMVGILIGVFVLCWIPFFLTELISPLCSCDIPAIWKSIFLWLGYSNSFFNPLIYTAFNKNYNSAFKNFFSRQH
5-hydroxytryptamine receptor 7 (Homo sapiens), sequence (P34969 whole entry): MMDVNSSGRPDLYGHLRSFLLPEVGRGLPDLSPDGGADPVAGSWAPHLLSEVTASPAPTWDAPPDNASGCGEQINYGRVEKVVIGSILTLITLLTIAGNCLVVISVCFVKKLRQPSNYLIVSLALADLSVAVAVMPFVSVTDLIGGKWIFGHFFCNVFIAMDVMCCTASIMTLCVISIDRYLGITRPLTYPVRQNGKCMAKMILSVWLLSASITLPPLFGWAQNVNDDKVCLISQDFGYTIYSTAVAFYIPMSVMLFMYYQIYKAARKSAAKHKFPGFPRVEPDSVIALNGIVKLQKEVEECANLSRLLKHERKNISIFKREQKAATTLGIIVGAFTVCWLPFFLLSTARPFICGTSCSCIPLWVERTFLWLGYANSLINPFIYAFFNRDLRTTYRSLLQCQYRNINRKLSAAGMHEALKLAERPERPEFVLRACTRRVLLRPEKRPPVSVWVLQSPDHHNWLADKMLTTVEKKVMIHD
Sodium-dependent serotonin transporter (Homo sapiens), sequence (P31645 whole entry, looked up): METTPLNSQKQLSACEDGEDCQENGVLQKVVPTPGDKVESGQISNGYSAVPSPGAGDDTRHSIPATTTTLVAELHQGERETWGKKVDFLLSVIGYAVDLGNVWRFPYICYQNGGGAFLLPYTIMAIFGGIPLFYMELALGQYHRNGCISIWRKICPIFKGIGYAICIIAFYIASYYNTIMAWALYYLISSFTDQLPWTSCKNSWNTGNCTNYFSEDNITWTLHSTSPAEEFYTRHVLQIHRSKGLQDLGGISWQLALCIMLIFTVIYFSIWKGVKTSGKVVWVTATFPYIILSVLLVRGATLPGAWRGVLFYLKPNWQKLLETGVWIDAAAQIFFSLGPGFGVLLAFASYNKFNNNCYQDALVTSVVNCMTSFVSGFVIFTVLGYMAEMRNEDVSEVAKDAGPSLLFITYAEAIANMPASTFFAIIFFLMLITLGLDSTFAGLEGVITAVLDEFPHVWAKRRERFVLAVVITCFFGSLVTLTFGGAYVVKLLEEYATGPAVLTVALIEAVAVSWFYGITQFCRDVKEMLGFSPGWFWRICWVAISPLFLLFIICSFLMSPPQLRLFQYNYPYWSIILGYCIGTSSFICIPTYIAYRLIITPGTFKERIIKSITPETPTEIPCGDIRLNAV
Histamine H4 receptor (Homo sapiens), sequence (Q9H3N8 whole entry): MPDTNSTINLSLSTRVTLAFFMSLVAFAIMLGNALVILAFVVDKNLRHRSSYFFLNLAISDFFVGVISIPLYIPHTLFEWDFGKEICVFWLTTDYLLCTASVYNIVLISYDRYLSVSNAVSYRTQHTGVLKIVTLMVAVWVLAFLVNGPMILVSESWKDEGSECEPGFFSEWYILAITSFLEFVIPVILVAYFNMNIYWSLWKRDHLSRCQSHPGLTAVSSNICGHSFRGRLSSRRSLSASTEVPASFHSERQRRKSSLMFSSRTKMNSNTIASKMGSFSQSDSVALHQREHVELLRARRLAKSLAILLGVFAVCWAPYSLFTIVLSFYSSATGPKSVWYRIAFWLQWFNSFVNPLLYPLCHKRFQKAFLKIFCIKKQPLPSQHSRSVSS
Histamine H1 receptor (Homo sapiens), sequence (P35367 whole entry): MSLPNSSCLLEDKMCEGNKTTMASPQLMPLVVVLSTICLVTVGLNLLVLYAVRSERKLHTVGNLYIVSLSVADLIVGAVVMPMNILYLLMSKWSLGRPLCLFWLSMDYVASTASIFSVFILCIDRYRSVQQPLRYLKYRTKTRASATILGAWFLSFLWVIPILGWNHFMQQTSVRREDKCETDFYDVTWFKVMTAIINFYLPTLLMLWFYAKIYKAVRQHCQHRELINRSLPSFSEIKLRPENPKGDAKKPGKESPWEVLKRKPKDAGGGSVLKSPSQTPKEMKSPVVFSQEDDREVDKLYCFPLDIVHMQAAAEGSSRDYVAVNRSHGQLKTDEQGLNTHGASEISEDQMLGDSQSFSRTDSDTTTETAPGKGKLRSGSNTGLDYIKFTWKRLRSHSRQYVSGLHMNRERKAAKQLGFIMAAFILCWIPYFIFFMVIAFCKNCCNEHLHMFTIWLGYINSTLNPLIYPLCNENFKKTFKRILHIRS

Compound	inhibition [1] [%]	inhibition [2] [%]	inhibition [3] [%]	inhibition [4] [%]	inhibition [5] [%]	inhibition [6] [%]	inhibition [7] [%]	inhibition [8] [%]	inhibition [9] [%]	inhibition [10] [%]	inhibition [11] [%]	inhibition [12] [%]	inhibition [13] [%]	inhibition [14] [%]	inhibition [15] [%]
CNC[C@H](O)c1cccc(O)c1	78.2	32.8	6.21	-2.34	19.6	1.52	15.9	48.1	20.3	26.3	75.5	3.06			
COc1ccc(C2(O)OC(=O)C(c3ccc4c(c3)OCO4)=C2Cc2cc(OC)c(OC)c(OC)c2)cc1 (stereo not drawn)	4.57		1.32	11.8	14.6	8.87	2.7	21.7		4.51	12		-2.63	7.04	
CCN(CC)CCCCC1CCN(CC(=O)N2c3ccccc3C(=O)Nc3cccnc32)CC1	12.9	-6.76	95.5	-7.08	21.4	0.4	14.9	33.2	13.9				4.03	-8.29	82.5
CCCCc1nc(Cl)c(CO)n1Cc1ccc(-c2ccccc2-c2nnn[nH]2)cc1	6.2	3.84	-5.3		7.13	19.9	-3.17	43.4	37.1	16.9	40		8.7	37	-1.67
CC(C)NCC(O)COc1ccc(CCOCC2CC2)cc1 (stereo not drawn)	20.5	2.92	22.5	1.05		-1.07	10.4	5.07	32.1	-3.84		-2.29			6.71
C=CCN1C[C@H](C)N([C@H](c2ccc(C(=O)N(CC)CC)cc2)c2cccc(O)c2)C[C@H]1C	17.8	25.4	-5.52	8.35	-9.85		27.1	31.4	30			13.7			
COc1cc2c(CCNC(C)=O)c[nH]c2cc1Cl	13.4	-1.89		3.86	2.03	-4.64	25.2	45.4	57.2		-0.31			-6.09	
C[C@@H](N)Cc1c[nH]cn1	8.47	10.9		8.33	95.7	-9.3	5.1	6.42	35.1	-3.48	3.45	6.49			24.8
N=C(N)SCCc1c[nH]cn1	51.5	20.8		6.96	111		8.52		33	-5.14	19.2		3.8	6.59	3.23
CN(C)C(=O)C(CCN1CCC(O)(c2ccc(Cl)cc2)CC1)(c1ccccc1)c1ccccc1	47.1	39.4	-6.62		7.53	41.4	20.1	55.2	83.3	23.2	20.8		-4.2	54.2	1.53
CCCn1c(=O)c2[nH]c(-c3cnn(Cc4cccc(C(F)(F)F)c4)c3)nc2n(CC)c1=O	10.9	-0.44		-0.63			13.9	10.2	35.7				-6.47	0.57	-3.39
N#Cc1c(N)nc(SCC(N)=O)c(C#N)c1-c1ccc(OCC2CC2)cc1	-1.71		34.5	22.6	14.3	2.75			12.7	7.71				8.04	
O=C(Nc1ccc(Cl)cc1)Nc1cccc(-c2cccc(N3CCCC3)n2)c1	3.23	-1.24	18.8	-4.85	-1.99	28.2			10.6					5.64	
CC(C)(C)NC[C@H](O)COc1nsnc1N1CCOCC1	11.8	1.66	-8.25		3.02	39.4	17.9	19.4	16.9					15.6	6.52
Cc1cccc(NC(=O)N[C@@H]2N=C(c3ccccc3)c3ccccc3N(C)C2=O)c1	13.9	12.3	-5.23	12.5	18.3	-9.64	16.2	24.6	63		3.26			14.6	0.34
CC(C)NCC(O)COc1cccc2ccccc12 (stereo not drawn)	16.4	8.7	-3.37		10.8	77.5	9.59	87.2	86.3	-2.95	13.3			13.2	10.2
